Results on 12 molecules are retold here after ChEMBL document CHEMBL3808282, “Gram Scale Syntheses of (-)-Incarvillateine and Its Analogs. Discovery of Potent Analgesics for Neuropathic Pain” (2016).

Each structure is given as a SMILES string. Calls of active or inactive are those of the source. The rule behind the calls is not given here.

In experiment [1] the test system is Mus musculus. Kind of experiment: Antinociceptive activity in ICR mouse assessed as reduction in licking and biting time during first phase at 10 mg/kg, ip administered 10 mins prior to formalin challenge measured for 10 mins (reference value: 156 +/- 8 s). The class given is functional.
Experiment [2] deals with Mus musculus. Kind of experiment: Antinociceptive effect in Kunming mouse assessed as inhibition of acetic acid-induced writhing response at 20 mg/kg, ip administered 30 mins prior to acetic acid challenge measured 5 mins post injection for 15 mins. In kind it is functional. (Writhing tests count abdominal constrictions after an irritant is injected.)
The test system of experiment [3] is Mus musculus. Kind of experiment: Antinociceptive effect in C57BL/6 mouse assessed as inhibition of spared nerve injury-induced neuropathic pain response at 10 to 20 mg/kg, ip measured after 5 to 7 days of recovery by Von Frey filament assay. The class given is functional, organism-based.
The test system of experiment [4] is Mus musculus. Kind of experiment: Antinociceptive activity in ICR mouse assessed as reduction in licking and biting time during first phase at 20 mg/kg, ip administered 10 mins prior to formalin challenge measured for 10 mins (reference value: 156 +/- 8 s). The class given is functional.
Experiment [5] has as its system Mus musculus. Kind of experiment: Antinociceptive activity in ICR mouse assessed as reduction in licking and biting time during second phase at 10 mg/kg, ip administered 10 mins prior to formalin challenge measured for 10 to 30 mins (reference value: 159 +/- 25 s). The class given is functional.
Experiment [6] has as its system Mus musculus. Kind of experiment: Antinociceptive activity in ip dosed ICR mouse assessed as reduction in licking and biting time during first phase administered 10 mins prior to formalin challenge measured for 10 mins relative to vehicle control. The class given is functional, organism-based.
Experiment [7] has as its system Mus musculus. Kind of experiment: Antinociceptive activity in ICR mouse assessed as reduction in licking and biting time during second phase at 20 mg/kg, ip administered 10 mins prior to formalin challenge measured for 10 to 30 mins (reference value: 159 +/- 25 s). In kind it is functional.
Experiment [8] has as its system Mus musculus. Kind of experiment: Antinociceptive activity in ip dosed ICR mouse assessed as reduction in licking and biting time during second phase administered 10 mins prior to formalin challenge measured for 10 to 30 mins relative to vehicle control. In kind it is functional, organism-based.
For experiment [9], the system named is Mus musculus. The experiment can be described thus: Antinociceptive effect in Kunming mouse assessed as inhibition of acetic acid-induced writhing response at 20 mg/kg, sc administered 30 mins prior to acetic acid challenge measured 5 mins post injection for 15 mins. In kind it is functional.
The test system of experiment [10] is Mus musculus. Kind of experiment: Antinociceptive effect in C57BL/6 mouse assessed as inhibition of spared nerve injury-induced neuropathic pain response at 10 to 40 mg/kg, ip measured after 5 to 7 days of recovery by Von Frey filament assay. In kind it is functional, organism-based.
The test system of experiment [11] is Mus musculus. Kind of experiment: Antinociceptive activity in ICR mouse assessed as reduction in licking and biting time during second phase at 10 mg/kg, ip administered 10 mins prior to formalin challenge measured for 10 to 30 mins (reference value: 159 +/- 15 s). In kind it is functional.
For experiment [12], the system named is Mus musculus. The experiment can be described thus: Antinociceptive activity in ICR mouse assessed as reduction in licking and biting time during second phase at 10 mg/kg, ip administered 10 mins prior to formalin challenge measured for 10 to 30 mins (reference value: 178 +/- 19 s). The class given is functional.
The test system of experiment [13] is Mus musculus. Kind of experiment: Antinociceptive effect in C57BL/6 mouse assessed as inhibition of spared nerve injury-induced neuropathic pain response at 100 mg/kg, ip measured after 5 to 7 days of recovery by Von Frey filament assay. The class given is functional, organism-based.
The subject of experiment [14] is Mus musculus. Kind of experiment: Antinociceptive effect in Kunming mouse assessed as inhibition of acetic acid-induced writhing response at 100 mg/kg, ip administered 30 mins prior to acetic acid challenge measured 5 mins post injection for 15 mins. The class given is functional.
Experiment [15] relates to Mus musculus. The experiment can be described thus: Antinociceptive effect in Kunming mouse assessed as inhibition of acetic acid-induced writhing response at 100 mg/kg, sc administered 30 mins prior to acetic acid challenge measured 5 mins post injection for 15 mins. The class given is functional.

In the case of `COc1cc([C@H]2[C@H](C(=O)O[C@@H]3C[C@@H]4[C@@H](CN(C)C[C@@H]4C)[C@@H]3C)[C@H](c3ccc(O)c(OC)c3)[C@H]2C(=O)O[C@@H]2C[C@@H]3[C@@H](CN(C)C[C@@H]3C)[C@@H]2C)ccc1O` [INCARVILLATEINE], the Time in [1] is 101 s; in experiment [4], 51 s; in experiment [5], 67 s; in experiment [7], 1 s. For the same molecule, the inhibition in vivo at 20 mg/kg in experiment [2] is 78.5%; in experiment [9], 69.2%. Also, the inhibition result in experiment [3] is “Active”. The Activity entry in [6] and in experiment [8] was “Dose-dependent effect” throughout.

Take `COc1cc([C@H]2[C@H](C(=O)OCC3CCN(C)CC3)[C@H](c3ccc(O)c(OC)c3)[C@H]2C(=O)OCC2CCN(C)CC2)ccc1O`: the inhibition result in [10] was “Active”. In experiment [11], the Time was 95 s. The inhibition in vivo at 20 mg/kg in experiment [9] was 75.7%.

As to `C=CCN1C[C@H]2[C@H](C)[C@H](OC(=O)[C@H]3[C@H](c4ccc(O)c(OC)c4)[C@H](C(=O)O[C@@H]4C[C@@H]5[C@@H](CN(CC=C)C[C@@H]5C)[C@@H]4C)[C@H]3c3ccc(O)c(OC)c3)C[C@H]2[C@@H](C)C1`, in [9], the inhibition in vivo at 20 mg/kg is 70.6%.

As to `CCCN1C[C@H]2[C@H](C)[C@H](OC(=O)[C@H]3[C@H](c4ccc(O)c(OC)c4)[C@H](C(=O)O[C@@H]4C[C@@H]5[C@@H](CN(CCC)C[C@@H]5C)[C@@H]4C)[C@H]3c3ccc(O)c(OC)c3)C[C@H]2[C@@H](C)C1`, the inhibition in vivo at 20 mg/kg in experiment [9] came to 48.2%.

On to `COc1cc([C@H]2[C@H](C(=O)OCCC3CCN(C)CC3)[C@H](c3ccc(O)c(OC)c3)[C@H]2C(=O)OCCC2CCN(C)CC2)ccc1O`, for which, in experiment [9], the inhibition in vivo at 20 mg/kg is 22.4%.

On to `C=C1CN(C)C[C@H]2[C@H](C)[C@H](OC(=O)[C@H]3[C@H](c4ccc(O)c(OC)c4)[C@H](C(=O)O[C@@H]4C[C@H]5C(=C)CN(C)C[C@H]5[C@@H]4C)[C@H]3c3ccc(O)c(OC)c3)C[C@@H]12`, for which the inhibition entry in experiment [10] was “Active”. For the same molecule, the inhibition in vivo at 20 mg/kg in experiment [2] came to 89.4%; in experiment [9], 77.8%. Moreover, in experiment [12], the Time came to 87 s.

On to `CCCCN1C[C@H]2[C@H](C)[C@H](OC(=O)[C@H]3[C@H](c4ccc(O)c(OC)c4)[C@H](C(=O)O[C@@H]4C[C@@H]5[C@@H](CN(CCCC)C[C@@H]5C)[C@@H]4C)[C@H]3c3ccc(O)c(OC)c3)C[C@H]2[C@@H](C)C1`, for which the inhibition in vivo at 20 mg/kg in experiment [9] amounted to 13.1%.

For the molecule `NCC1(CC(=O)O)CCCCC1`, the inhibition entry in experiment [13] is “Active”.

On to `COc1cc([C@H]2[C@H](C(=O)OC3CCN(C)CC3)[C@H](c3ccc(O)c(OC)c3)[C@H]2C(=O)OC2CCN(C)CC2)ccc1O`, for which the inhibition in vivo at 20 mg/kg in [9] is 41.2%.

`COc1cc([C@H]2[C@H](C(=O)O[C@@H]3C[C@@H]4[C@@H](CN(C)C[C@H]4C)[C@@H]3C)[C@H](c3ccc(O)c(OC)c3)[C@H]2C(=O)O[C@@H]2C[C@@H]3[C@@H](CN(C)C[C@H]3C)[C@@H]2C)ccc1O`: the inhibition in vivo at 20 mg/kg in [9] is 65.1%.

For the molecule `COc1cc([C@H]2[C@H](C(=O)O[C@@H]3C[C@@H]4[C@@H](CN(CC5CC5)C[C@@H]4C)[C@@H]3C)[C@H](c3ccc(O)c(OC)c3)[C@H]2C(=O)O[C@@H]2C[C@@H]3[C@@H](CN(CC4CC4)C[C@@H]3C)[C@@H]2C)ccc1O`, the inhibition in vivo at 20 mg/kg in experiment [2] came to 88.1%.

Take `CC(=O)Oc1ccccc1C(=O)O` [ASPIRIN DL-LYSINE]: the values for the inhibition in vivo at 100 mg/kg in experiment [14] and in experiment [15] were 85.4% and 81.9%, respectively.

As a reminder, the inhibition in vivo is the change of the read-out against control, counted positive when it falls.
